Usually EC50 stands for the midpoint of the concentration-response curve.

The values that follow come from US11345708B2, “Substituted imidazo[1,2-a]imidazoles as modulators of metabotropic glutamate receptor 4 activity” (Hoffmann-La Roche Inc., priority 2017, dated 2022).

SMILES strings stand for the structures.

The target in this assay is T1, human mGlu4 receptor (Homo sapiens, UniProt Q14833).
T1 construct: expressed in transfected cells; host or cells: HEK-293 (monoclonal, stably transfected)
T1 sequence (Q14833 33-912): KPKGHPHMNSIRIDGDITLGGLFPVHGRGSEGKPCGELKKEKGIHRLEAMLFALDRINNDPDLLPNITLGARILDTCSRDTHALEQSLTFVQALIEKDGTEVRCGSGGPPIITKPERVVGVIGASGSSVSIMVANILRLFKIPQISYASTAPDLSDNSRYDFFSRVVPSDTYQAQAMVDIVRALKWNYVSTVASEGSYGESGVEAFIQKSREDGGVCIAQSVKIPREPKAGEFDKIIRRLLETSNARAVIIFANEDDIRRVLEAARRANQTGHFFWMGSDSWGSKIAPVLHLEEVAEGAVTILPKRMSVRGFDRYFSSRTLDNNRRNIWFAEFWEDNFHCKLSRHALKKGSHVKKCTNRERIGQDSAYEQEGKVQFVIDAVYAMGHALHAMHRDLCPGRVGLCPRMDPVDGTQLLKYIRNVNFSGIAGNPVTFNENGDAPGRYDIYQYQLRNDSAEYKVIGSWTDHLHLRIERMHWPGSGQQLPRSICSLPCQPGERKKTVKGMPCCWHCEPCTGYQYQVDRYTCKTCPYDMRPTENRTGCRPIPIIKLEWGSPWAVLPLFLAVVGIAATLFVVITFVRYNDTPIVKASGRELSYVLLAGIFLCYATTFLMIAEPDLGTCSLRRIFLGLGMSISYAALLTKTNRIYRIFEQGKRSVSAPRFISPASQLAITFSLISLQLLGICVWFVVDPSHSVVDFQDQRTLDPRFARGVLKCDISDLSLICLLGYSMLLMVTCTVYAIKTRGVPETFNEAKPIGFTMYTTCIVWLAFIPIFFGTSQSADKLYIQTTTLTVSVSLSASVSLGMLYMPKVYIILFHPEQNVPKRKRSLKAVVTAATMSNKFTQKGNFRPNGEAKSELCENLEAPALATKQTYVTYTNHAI
Briefly: Ca2+ mobilization in vitro assay on recombinant human mGlu4 expressed in HEK293 cells. Conditions: HEK-293 cells stably expressing human mGlu4; L-AP4 added at EC20; Fluo-4 fluorescence; read-out: EC50 (uM) mGlu4 PAM. The format is cell-based. How it is done: Determination of EC50 Values Using a Ca2+ Mobilization In Vitro Assay on Recombinant Human mGlu4 Expressed in HEK293 Cells:
A monoclonal HEK-293 cell line stably transfected with a cDNA encoding for the human mGlu4 receptor was generated; for the work with mGlu4 Positive Allosteric Modulators (PAMs), a cell line with low receptor expression levels and low constitutive receptor activity was selected to allow the differentiation of agonistic versus PAM activity. Cells were cultured according to standard protocols (Freshney, 2000) in Dulbecco's Modified Eagle Medium with high glucose supplemented with 1 mM glutamine, 10% (vol/vol) heat-inactivated bovine calf serum, Penicillin/Streptomycin, 50 μg/ml hygromycin and 15 μg/ml blasticidin (all cell culture reagents and antibiotics from Invitrogen, Basel, Switzerland).
About 24 hrs before an experiment, 5×10^4 cells/well were seeded in poly-D-lysine coated, black/clear-bottomed 96-well plates. The cells were loaded with 2.5 μM Fluo-4 AM in loading buffer (1×HBSS, 20 mM HEPES) for 1 hr at 37° C. and washed five times with loading buffer. The cells were transferred into a Functional Drug Screening System 7000 (Hamamatsu, Paris, France), and 11 half logarithmic serial dilutions of test compound at 37° C. were added and the cells were incubated for 10-30 min. with on-line recording of fluorescence. Following this pre-incubation step, the agonist (2S)-2-amino-4-phosphonobutanoic acid (L-AP4) was added to the cells at a concentration corresponding to EC20 with on-line recording of fluorescence; in order to account for day-to-day variations in the responsiveness of cells, the EC20 of L-AP4 was determined immediately ahead of each experiment by recording of a full dose-response curve of L-AP4.
Responses were measured as peak increase in fluorescence minus basal (i.e. fluorescence without addition of L-AP4), normalized to the maximal stimulatory effect obtained with saturating concentrations of L-AP4. Graphs were plotted with the % maximal stimulatory using XLfit, a curve fitting program that iteratively plots the data using Levenburg Marquardt algorithm. The single site competition analysis equation used was y=A+((B−A)/(1+((x/C)D))), where y is the % maximal stimulatory effect, A is the minimum y, B is the maximum y, C is the EC50, x is the log 10 of the concentration of the competing compound and D is the slope of the curve (the Hill Coefficient). From these curves the EC50 (drug concentration at which 50% of the maximal receptor activation was achieved), the Hill coefficient as well as the maximal response in % of the maximal stimulatory effect obtained with saturating concentrations of L-AP4 were calculated (see Fig. 1).
A depression of the signal observed after addition of the EC20 concentration of L-AP4 was indicative of an inhibitory activity of the test compound.
For orientation: A change in cytosolic calcium serves as a functional read-out for many receptors and channels.
Take `CC(F)(F)c1ccc(-c2cc(F)c(N3C(=O)C4(CC4)n4c(-c5cc[nH]n5)cnc43)c(F)c2)cc1` [Example 40, 1′-(4′-(1,1-difluoroethyl)-3,5-difluoro-[1,1′-biphenyl]-4-yl)-5′-(1H-pyrazol-3-yl)spiro[cyclopropane-1,3′-imidazo[1,2-a]imidazol]-2′(1′H)-one]: the EC50 was found to be 0.206 µM.

Consider `O=C(Nc1ccccn1)c1cc(F)c(N2C(=O)C3(CC3)n3c(-c4ccccn4)cnc32)c(F)c1` [Example 22, 3,5-difluoro-4-[6′-oxo-3′-(2-pyridyl)spiro[cyclopropane-1,5′-imidazo[1,2-a]imidazole]-7′-yl]-N-(2-pyridyl)benzamide], for which the EC50 was 0.61 µM.

In the case of `O=C(Nc1cc(F)c(N2C(=O)C3(CC3)n3c(CO)cnc32)c(F)c1)c1ccccn1` [Example 56, N-[3,5-difluoro-4-[3′-(hydroxymethyl)-6′-oxo-spiro[cyclopropane-1,5′-imidazo[1,2-a]imidazole]-7′-yl]phenyl]pyridine-2-carboxamide], the concentration for a half-maximal effect (EC50) came out at 0.834 µM.

For `CC(C)(C)c1cnn(-c2cc(F)c(N3C(=O)C4(CC4)n4c(-c5ccccn5)cnc43)c(F)c2)c1` [Example 19, 7′-[4-(4-tert-butylpyrazol-1-yl)-2,6-difluoro-phenyl]-3′-(2-pyridyl)spiro[cyclopropane-1,5′-imidazo[1,2-a]imidazole]-6′-one], the EC50 stood at 0.426 µM.

Regarding `O=C1N(c2c(F)cc(C#Cc3cccnc3)cc2F)c2ncc(-c3cccnc3)n2C12CC2` [Example 39, 1′-(2,6-difluoro-4-(pyridin-3-ylethynyl)phenyl)-5′-(pyridin-3-yl)spiro[cyclopropane-1,3′-imidazo[1,2-a]imidazol]-2′(1′H)-one], the EC50 came out at 0.566 µM.

For the compound `O=C1N(c2c(F)cc(C#Cc3ccccc3)cc2F)c2ncc(CO)n2C12CC2` [Example 55, 7′-[2,6-difluoro-4-(2-phenylethynyl)phenyl]-3′-(hydroxymethyl)spiro[cyclopropane-1,5′-imidazo[1,2-a]imidazole]-6′-one], the EC50 is 0.294 µM.

Regarding `O=C1N(c2c(F)cc(C#Cc3ccccc3)cc2F)c2ncc(I)n2C12CC2` [Example 9, 3-[2,6-difluoro-4-(2-phenylethynyl)phenyl]-6-iodo-2,3-dihydrospiro[[1,3]diazolo[1,2-a]imidazole-1,1′-cyclopropane]-2-one], the concentration giving a half-maximal response (EC50) came out at 0.245 µM.

With `O=C1N(c2c(F)cc(C#Cc3ccccc3)cc2F)c2ncc(-c3cc[nH]n3)n2C12CC2` [Example 27, 3-[2,6-Difluoro-4-(2-phenylethynyl)phenyl]-6-(1H-pyrazol-3-yl)-2,3-dihydrospiro[[1,3]diazolo[1,2-a]-imidazole-1,1′-cyclopropane]-2-one], the concentration giving a half-maximal response (EC50) stood at 0.121 µM.

On to `O=C1CCN1c1cnc2n1C1(CC1)C(=O)N2c1c(F)cc(C#Cc2cccnc2)cc1F` [Example 54, 7′-[2,6-difluoro-4-[2-(3-pyridyl)ethynyl]phenyl]-3′-(2-oxoazetidin-1-yl)spiro[cyclopropane-1,5′-imidazo[1,2-a]imidazole]-6′-one], for which the EC50 was 0.808 µM.

Turning to `CC(O)c1cnc2n1C1(CC1)C(=O)N2c1c(F)cc(-n2cc(C(C)(C)C)cn2)cc1F` (stereo not shown) [Example 58, 7′-[4-(4-tert-butylpyrazol-1-yl)-2,6-difluoro-phenyl]-3′-(1-hydroxyethyl)spiro[cyclopropane-1,5′-imidazo[1,2-a]imidazole]-6′-one], the EC50 was determined as 0.842 µM.

In the case of `Cn1cnc(-c2cnc3n2C2(CC2)C(=O)N3c2c(F)cc(C#Cc3cccnc3)cc2F)c1` [Example 20, 7′-[2,6-difluoro-4-[2-(3-pyridyl)ethynyl]phenyl]-3′-(1-methylimidazol-4-yl)spiro[cyclopropane-1,5′-imidazo[1,2-a]imidazole]-6′-one], the EC50 came out at 0.442 µM.

`CC1(C)C(=O)N(c2c(F)cc(C#Cc3ccccc3)cc2F)c2ncc(-c3ccccc3)n21` [Example 31, 1-(2,6-difluoro-4-(phenylethynyl)phenyl)-3,3-dimethyl-5-phenyl-1H-imidazo[1,2-a]imidazol-2(3H)-one]: the EC50 turned out to be 0.243 µM.

For `O=C1N(c2c(F)cc(C#Cc3cccnc3)cc2F)c2ncc(-c3ccccn3)n2C12CC2` [Example 17, 7′-[2,6-difluoro-4-[2-(3-pyridyl)ethynyl]phenyl]-3′-(2-pyridyl)spiro[cyclopropane-1,5′-imidazo[1,2-a]imidazole]-6′-one], the EC50 is 0.283 µM.

As for `CC(C)(C)c1cnn(-c2cc(F)c(N3C(=O)C4(CC4)n4c(C5(O)COC5)cnc43)c(F)c2)c1` [Example 52, 7′-[4-(4-tert-butylpyrazol-1-yl)-2,6-difluoro-phenyl]-3′-(3-hydroxyoxetan-3-yl)spiro[cyclopropane-1,5′-imidazo[1,2-a]imidazole]-6′-one], the EC50 came out at 0.905 µM.

Regarding `O=C1N(c2c(F)cc(C#Cc3ccccc3)cc2F)c2ncc(-c3cn[nH]c3)n2C12CC2` [Example 41, 3-[2,6-Difluoro-4-(2-phenylethynyl)phenyl]-6-(1H-pyrazol-4-yl)-2,3-dihydrospiro[[1,3]diazolo[1,2-a]imidazole-1,1′-cyclopropane]-2-one], the EC50 is 0.238 µM.

With `O=C1N(c2c(F)cc(C#Cc3cccnc3)cc2F)c2ncc(-c3ccncn3)n2C12CC2` [Example 16, 7′-[2,6-difluoro-4-[2-(3-pyridyl)ethynyl]phenyl]-3′-pyrimidin-4-yl-spiro[cyclopropane-1,5′-imidazo[1,2-a]imidazole]-6′-one], the EC50 turned out to be 0.237 µM.

Regarding `O=C(Nc1cc(F)c(N2C(=O)C3(CC3)n3c(-c4cc[nH]n4)cnc32)c(F)c1)c1ccccn1` [Example 43, N-[3,5-difluoro-4-[6′-oxo-3′-(1H-pyrazol-3-yl)spiro[cyclopropane-1,5′-imidazo[1,2-a]imidazole]-7′-yl]phenyl]pyridine-2-carboxamide], the EC50 was 0.015 µM.

Regarding `Cn1nccc1-c1cnc2n1C1(CC1)C(=O)N2c1c(F)cc(C#Cc2ccccc2)cc1F` [Example 44, 7′-[2,6-difluoro-4-(2-phenylethynyl)phenyl]-3′-(2-methylpyrazol-3-yl)spiro[cyclopropane-1,5′-imidazo[1,2-a]imidazole]-6′-one], the EC50 worked out at 0.422 µM.

As to `CC1(C)C(=O)N(c2c(F)cc(C#Cc3ccccc3)cc2F)c2nccn21` [Example 5, 1-(2,6-difluoro-4-(phenylethynyl)phenyl)-3,3-dimethyl-1H-imidazo[1,2-a]imidazol-2(3H)-one], the half-maximal effective concentration (EC50) was 0.468 µM.

`O=C1N(c2c(F)cc(C#Cc3ccccc3)cc2F)c2ncc(C3(O)COC3)n2C12CC2` [Example 50, 7′-[2,6-difluoro-4-(2-phenylethynyl)phenyl]-3′-(3-hydroxyoxetan-3-yl)spiro[cyclopropane-1,5′-imidazo[1,2-a]imidazole]-6′-one]: the EC50 is 0.322 µM.

As for `O=C(Nc1cc(F)c(N2C(=O)C3(CC3)n3c(C4(O)COC4)cnc32)c(F)c1)c1ccccn1` [Example 51, N-[3,5-difluoro-4-[3′-(3-hydroxyoxetan-3-yl)-6′-oxo-spiro[cyclopropane-1,5′-imidazo[1,2-a]imidazole]-7′-yl]phenyl]pyridine-2-carboxamide], the concentration giving a half-maximal response (EC50) stood at 0.363 µM.

Regarding `Cn1ccc(-c2cnc3n2C(C)(C)C(=O)N3c2c(F)cc(C#Cc3ccccc3)cc2Cl)n1` [Example 36, 1-(2-chloro-6-fluoro-4-(phenylethynyl)phenyl)-3,3-dimethyl-5-(1-methyl-1H-pyrazol-3-yl)-1H-imidazo[1,2-a]imidazol-2(3H)-one], the half-maximal effective concentration (EC50) was 0.252 µM.

With `Cn1ccc(-c2cnc3n2C2(CC2)C(=O)N3c2c(F)cc(-c3ccc(OC(F)F)cc3)cc2F)n1` [Example 45, 7′-[4-[4-(difluoromethoxy)phenyl]-2,6-difluoro-phenyl]-3′-(1-methylpyrazol-3-yl)spiro[cyclopropane-1,5′-imidazo[1,2-a]imidazole]-6′-one], the EC50 turned out to be 0.621 µM.

For the compound `O=C1N(c2c(F)cc(C#Cc3ccccc3)cc2F)c2nccn2C12CC2` [Example 1, 3-[2,6-Difluoro-4-(2-phenylethynyl)phenyl]-2,3-dihydrospiro[[1,3]diazolo[1,2-a]imidazole-1,1′-cyclopropane]-2-one], the EC50 worked out at 0.178 µM.

On to `Cc1cnc2n1C1(CC1)C(=O)N2c1c(F)cc(NC(=O)c2ccccn2)cc1F` [Example 48, N-[3,5-difluoro-4-(3′-methyl-6′-oxo-spiro[cyclopropane-1,5′-imidazo[1,2-a]imidazole]-7′-yl)phenyl]pyridine-2-carboxamide], for which the EC50 worked out at 0.377 µM.
